Results: ChEMBL document CHEMBL1201862, “PubChem BioAssay data set” (2004)
Active and inactive are the calls of the source.

Assays:
[1] = P. falciparum late gametocyte killing, dose response, luminescence (AID 1117278); assay type: functional, cell-based;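 further: gametocytes exposed to compound for 24 hours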
[2] = Jurkat T cell cytotoxicity, dose response, cytotoxicity control for P. falciparum gametocyte viability project, luminescence (AID 1117277); assay type: functional, cell-based;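 further: potency reflects loss of cellular ATP meaning fewer viable cells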
[3] = molecular target: T1, Mannose-6-phosphate isomerase (Homo sapiens, UniProt P34949); assay: human PMI inhibitors, high substrate, primary screen, biochemical, fluorescence intensity, high mannose 6-phosphate (AID 1220)
T1 sequence (P34949 whole entry): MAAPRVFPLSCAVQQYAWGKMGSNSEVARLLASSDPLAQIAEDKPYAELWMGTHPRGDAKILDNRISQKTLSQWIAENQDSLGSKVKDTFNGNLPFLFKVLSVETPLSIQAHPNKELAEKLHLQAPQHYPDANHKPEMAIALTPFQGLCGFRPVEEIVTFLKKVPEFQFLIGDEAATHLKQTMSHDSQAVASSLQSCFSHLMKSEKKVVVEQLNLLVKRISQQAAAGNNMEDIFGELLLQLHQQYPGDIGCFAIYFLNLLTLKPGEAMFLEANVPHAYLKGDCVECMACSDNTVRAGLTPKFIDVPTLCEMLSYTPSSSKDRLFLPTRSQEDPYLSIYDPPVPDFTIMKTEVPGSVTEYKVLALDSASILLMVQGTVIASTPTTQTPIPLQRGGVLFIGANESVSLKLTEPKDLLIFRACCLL

[4] = A cytotoxicity screen of small molecule inhibitors of the PhoP region in Salmonella typhi identified in the primary screen. [Related pubchem assays: 1850, 1864, 1985 ]; assay type: functional
Ephrin type-A receptor 4 = Ephrin type-A receptor 4 (Mus musculus, UniProt Q03137); assay: inhibitors of EphA4 binding to KYL peptide, primary screen, biochemical, colorimetric, mouse EphA4 (AID 689); assay type: functional
Sequence of Ephrin type-A receptor 4 (Q03137 whole entry, the tested form may be a part): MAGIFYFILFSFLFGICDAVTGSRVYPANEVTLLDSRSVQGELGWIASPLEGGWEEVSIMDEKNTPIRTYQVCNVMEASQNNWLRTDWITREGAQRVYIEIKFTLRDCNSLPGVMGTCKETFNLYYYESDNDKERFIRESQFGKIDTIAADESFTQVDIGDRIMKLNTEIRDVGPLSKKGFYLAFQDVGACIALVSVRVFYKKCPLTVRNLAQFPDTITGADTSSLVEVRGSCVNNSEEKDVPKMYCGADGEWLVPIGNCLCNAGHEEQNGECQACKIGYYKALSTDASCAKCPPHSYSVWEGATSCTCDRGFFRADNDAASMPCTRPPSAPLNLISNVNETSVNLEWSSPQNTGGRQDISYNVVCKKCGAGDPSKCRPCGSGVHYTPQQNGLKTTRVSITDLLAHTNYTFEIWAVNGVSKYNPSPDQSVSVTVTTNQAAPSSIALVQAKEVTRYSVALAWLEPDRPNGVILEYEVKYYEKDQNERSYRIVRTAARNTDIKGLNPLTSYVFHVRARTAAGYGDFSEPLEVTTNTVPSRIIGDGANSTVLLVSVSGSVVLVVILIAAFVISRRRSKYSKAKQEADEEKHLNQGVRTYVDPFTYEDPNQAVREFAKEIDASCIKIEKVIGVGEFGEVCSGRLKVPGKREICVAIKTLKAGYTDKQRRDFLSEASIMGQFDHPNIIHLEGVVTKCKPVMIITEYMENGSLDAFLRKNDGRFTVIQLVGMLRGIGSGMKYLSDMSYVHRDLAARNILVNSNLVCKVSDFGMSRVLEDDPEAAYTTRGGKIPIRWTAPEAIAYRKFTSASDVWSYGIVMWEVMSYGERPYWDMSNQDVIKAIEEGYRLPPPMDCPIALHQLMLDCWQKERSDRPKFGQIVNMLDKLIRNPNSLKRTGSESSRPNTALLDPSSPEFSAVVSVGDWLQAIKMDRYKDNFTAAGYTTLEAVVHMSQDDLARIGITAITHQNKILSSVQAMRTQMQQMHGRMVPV

CHO = assay: cytotoxicity in TLR9-MyD88 CHO cells, dose response, cytotoxicity control for TLR9-MyD88 binding inhibitor project, cell-based, luminescence (AID 588339); assay type: functional, hamster; conditions: Cricetulus griseus;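 further: CHO cells stably coexpressing TLR9 and MyD88 fusions from primary screen; compound exposure lasted 48 hours before viability readout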
[5] = molecular target: T2, Corticotropin-releasing factor receptor 2/Corticotropin-releasing factor-binding protein (Homo sapiens, UniProt P24387+Q13324); assay: activators of CRF receptor 2 with binding protein – uHTS hits, confirmation (AID 602473); assay type: functional; conditions: read-out: EC50_Mean
T2 sequence (Q13324 whole entry): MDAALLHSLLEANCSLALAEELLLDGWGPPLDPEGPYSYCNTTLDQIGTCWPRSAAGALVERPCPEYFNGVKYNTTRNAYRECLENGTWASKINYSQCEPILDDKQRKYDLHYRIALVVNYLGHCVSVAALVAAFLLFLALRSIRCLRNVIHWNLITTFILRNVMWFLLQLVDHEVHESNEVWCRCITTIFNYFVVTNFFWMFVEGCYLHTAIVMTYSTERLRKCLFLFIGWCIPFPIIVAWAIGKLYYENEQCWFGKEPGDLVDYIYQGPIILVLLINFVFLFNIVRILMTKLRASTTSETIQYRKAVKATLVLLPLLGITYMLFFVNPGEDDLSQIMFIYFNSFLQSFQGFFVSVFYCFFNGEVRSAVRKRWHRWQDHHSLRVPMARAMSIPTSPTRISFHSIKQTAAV
T2 sequence (P24387 whole entry): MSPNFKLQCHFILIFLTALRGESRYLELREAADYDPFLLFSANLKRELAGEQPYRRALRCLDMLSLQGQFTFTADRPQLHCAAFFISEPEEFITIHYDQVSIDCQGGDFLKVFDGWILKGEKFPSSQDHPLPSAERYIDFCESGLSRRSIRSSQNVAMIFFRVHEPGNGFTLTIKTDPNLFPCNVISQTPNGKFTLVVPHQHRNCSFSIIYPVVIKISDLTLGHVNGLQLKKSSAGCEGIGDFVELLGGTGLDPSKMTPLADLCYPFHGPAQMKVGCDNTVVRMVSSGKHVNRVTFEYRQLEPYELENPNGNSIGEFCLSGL

[6] = molecular target: Disintegrin and metalloproteinase domain-containing protein 17 (Homo sapiens, UniProt P78536); assay: exosite inhibitors of ADAM17, dose response, biochemical (AID 743260)
Sequence of Disintegrin and metalloproteinase domain-containing protein 17 (P78536 whole entry, the tested form may be a part): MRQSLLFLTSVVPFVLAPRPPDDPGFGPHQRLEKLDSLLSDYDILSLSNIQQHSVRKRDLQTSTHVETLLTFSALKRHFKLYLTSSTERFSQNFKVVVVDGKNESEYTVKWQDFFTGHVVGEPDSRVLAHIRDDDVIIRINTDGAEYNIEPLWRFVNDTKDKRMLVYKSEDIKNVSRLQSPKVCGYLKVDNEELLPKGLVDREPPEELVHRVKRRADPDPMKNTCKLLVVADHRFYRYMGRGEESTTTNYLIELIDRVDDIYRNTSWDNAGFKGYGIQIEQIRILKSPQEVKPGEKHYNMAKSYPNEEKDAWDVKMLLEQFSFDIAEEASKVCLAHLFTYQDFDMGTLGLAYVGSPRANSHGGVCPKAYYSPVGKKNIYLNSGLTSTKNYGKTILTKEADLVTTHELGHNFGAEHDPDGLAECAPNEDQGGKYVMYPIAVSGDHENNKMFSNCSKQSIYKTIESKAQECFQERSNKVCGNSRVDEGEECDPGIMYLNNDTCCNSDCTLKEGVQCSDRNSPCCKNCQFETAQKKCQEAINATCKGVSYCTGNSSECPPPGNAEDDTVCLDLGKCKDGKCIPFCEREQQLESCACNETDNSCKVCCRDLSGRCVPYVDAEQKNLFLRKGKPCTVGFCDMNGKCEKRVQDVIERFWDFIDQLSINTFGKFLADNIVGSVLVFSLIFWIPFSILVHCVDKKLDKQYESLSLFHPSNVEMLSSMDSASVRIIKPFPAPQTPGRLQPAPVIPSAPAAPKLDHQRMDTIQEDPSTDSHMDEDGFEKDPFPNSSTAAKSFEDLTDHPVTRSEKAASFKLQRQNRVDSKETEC

[7] = ADAM10 protease inhibitors, dose response, selectivity assay for ADAM17 exosite inhibitor project, biochemical, FRET peptide substrate, recombinant human ADAM10 (AID 743259);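 further: ADAM10 enzyme cleaving a FRET peptide substrate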

CCOC(=O)CN1C2=NCCN2c2ccccc21
IC50 [1]: > 109 µM (inactive)
IC50 [2]: > 83.4 µM (inactive)

COCCO/C(O)=C1\C(C)=NC2(O)c3ccccc3C(=O)C12O (stereo unspecified)
IC50 [3]: > 50 µM (not active)

Cc1cc(C)nc(SCC(=O)NCc2ccco2)n1
EC50 [4]: > 50 µM (active)

O=[N+]([O-])c1ccc(N(c2ccccc2)c2ccccc2)cc1
IC50 (Ephrin type-A receptor 4): 10.8 µM (active)
IC50 (CHO): > 49.7 µM (inactive)
EC50 [5]: 24.3 µM (active)

Cc1noc(C)c1C(=O)OCC(=O)Nc1ccccc1Oc1ccccc1
IC50 [6]: > 69.5 µM (inactive)
IC50 [7]: > 69.5 µM (inactive)

Cc1sc2c(=O)n3c(nc2c1C(=O)NC1CCCCC1)CCCCC3
IC50 [1]: > 109 µM (inactive)
IC50 [2]: > 83.3 µM (inactive)

CCOC(=O)c1ccc(NC(=O)CCOc2ccc(C)cc2)cc1
IC50 [1]: > 109 µM (inactive)
IC50 [2]: > 83.3 µM (inactive)

CN(Cc1ccc(F)cc1)C(=O)c1cccc(OCc2ccccc2)c1
IC50 [6]: > 69.5 µM (inactive)
IC50 [7]: 21.5 µM (inactive)

Cn1cc([N+](=O)[O-])c(C(=O)Nc2ccc3c(c2)OCCO3)n1
IC50 (Ephrin type-A receptor 4): > 100 µM (not active)
